Laboratory results taken from patent US9078864B2, “Agonists for antimicrobial peptide systems” (priority 2008, dated 2015).
Entries after “also recorded” stand apart in the source; their conditions may differ.

Columns and labels:
[1] = tested on: PBA and butyrate induced CAMP gene expression; test: Inhibition of PBA and butyrate induced CAMP gene expression by cycloheximide in VA10 cells; assay type: cell-based, human; details: 20 μg/ml one hour prior to stimulation, 24 hours
Experimental: VA10 cells were treated with 4 mM PBA or butyrate (BA) in the presence or absence of 20 μg/ml cycloheximide. CAMP mRNA levels were determined by real time RT-PCR. Individual samples were normalized to total RNA input. Results were normalized to expression in control samples (solvent) where controls were given the arbitrary value of one. Normalized data is plotted as mean plus standard error of the mean from at least three independent experiments. *: p<0.05; **: p<0.01; ***: p<0.001.
In order to assess whether the PBA and butyrate induction pathways of CAMP gene expression are direct, VA10 cells were treated with PBA or butyrate in the presence and absence of cycloheximide (CHX). After 24 hours of incubation, total RNA was isolated and CAMP mRNA levels measured using real time RT-PCR.

[2] = tested on: CAMP gene, encoding LL-37; test: CAMP (LL-37) mRNA expression in VA10 lung epithelial cells, real time RT-PCR; assay type: cell-based, human; details: for CAMP mRNA expression: 4 mM
Experimental: LL-37 expression in lung epithelial cells treated with different agents Lung epithelial cells (VA 10) were grown to confluency under standard conditions and the agents to be tested added at the indicated concentrations (see below). mRNA was isolated 24 hours after treatment and measured by real time reverse transcription PCR.
Six-well plates were seeded with 1.0×10^6 cells per well and grown for two days. Medium was then exchanged and different wells were left untreated, supplemented with 2 mM sodium butyrate or 2 mM sodium 4-phenylbutyrate. The cells were incubated for 48 h and total RNA was prepared using the RNEasy kit (Qiagen). Total RNA concentrations were measured using the Quant-iT RiboGreen RNA assay kit (Invitrogen). Superscript III first-strand synthesis system (Invitrogen) was used to synthesize cDNA using random primers according to the protocol of the manufacturer. […] Results were normalized to total RNA quantity, presented as relative fold induction of untreated control cells.
Total RNA was isolated from the cells and CAMP mRNA expression levels analyzed by real time RT-PCR.

[3] = tested on: PBA induced CAMP gene expression; test: Inhibition of PBA induced CAMP gene expression by MAP kinase inhibitors in VA10 cells; assay type: cell-based, human; details: 20 μM inhibitor one hour prior to 4 mM PBA, 24 hours
Experimental: FIG. 6B. […] CAMP mRNA levels were determined by real time RT-PCR. Individual samples were normalized to total RNA input. Results were normalized to expression in control samples where controls were given the arbitrary value of one. Normalized data is plotted as mean+SE from three independent experiments. *: P<0.05; **: P<0.01; ***: P<0.001
The effect of inhibitors for c-Jun N-terminal kinase (JNK), p38 kinase and extracellular signal-regulated kinase ½ (ERK½) on PBA induced CAMP gene expression were also investigated as shown in FIG. 6B. One hour prior to stimulation with 4 mM PBA, VA10 cells were pre incubated with 20 μM SP600125, SB203580 or U0126 to inhibit the respective kinases. After 24 hours of incubation, total RNA was isolated and analyzed by real time RT-PCR for CAMP mRNA.

[4] = cited from earlier work; for safety of topical (enema) dosing: 528 mg/day to 1.12 g/day, 2-6 weeks, adult IBD patients
defensin = details: similar concentrations, FIG. 7 of US2002-0076393; cited from earlier work
[5] = tested on: shigellosis; CAP-18 (the rabbit homologue of LL-37); details: rabbits; cited from earlier work
LL-37 mRNA = details: colonocytes in vitro; cited from earlier work
cathelicidin = details: 4000 IU/d oral for 21 days, atopic dermatitis subjects; cited from earlier work
[6] = tested on: CAMP mRNA in U937 (Human leukemic monocyte lymphoma cell line); test: CAMP gene expression by PBA in U937 cells; assay type: cell-based; details: 4 mM, 8, 24 and 48 hours
Experimental: (§1) FIG. 3: Induction of CAMP gene mRNA expression by PBA. A) VA10 cells were stimulated with the indicated concentrations of PBA or solvent (Control) for 24 hours. B) VA10 cells were stimulated with 4 mM PBA or treated with solvent alone and harvested after the indicated period of time. C) A498, HT-29 and U937 cells were stimulated with 4 mM PBA or solvent only and harvested after the indicated period of time. CAMP mRNA levels were determined by real time RT-PCR. Individual samples were normalized to total RNA input. Results were normalized to expression in control samples where controls were given the arbitrary value of one. The normalized data is plotted as mean+SE from at least three independent experiments.
(§2) In order to investigate the effect of PBA on other cell lines, HT-29 (Human colonic adenocarcinoma cell line), […] (Human renal carcinoma cell line) and U937 (Human leukemic monocyte lymphoma cell line) were stimulated with 4 mM PBA for 8, 24 and 48 hours. Total RNA was isolated from the cells and CAMP mRNA expression levels analyzed by real time RT-PCR.

[7] = tested on: acetylation of histone H3 and H4 at the CAMP gene proximal promoter; test: Histone H3 and H4 acetylation at the CAMP gene promoter, quantitative ChIP in VA10 cells; assay type: cell-based, human; details: 4 mM, 24 hours, listed as PBA
Experimental: FIG. 9: VA10 cells were stimulated with 4 mM of PBA or solvent alone (Control) for 24 hours. Acetylation of histone H3 and H4 was analyzed by quantitative ChIP using antibodies against the respective acetylated histones. Results were normalized to normal rabbit IgG and total input and plotted as fold precipitation over IgG. Normalized data is plotted as mean+SE from independent experiments (n=3).
The effect of PBA on acetylation of histone H3 and H4 by quantitative chromatin immunoprecipitation was assessed.

hBD-1 mRNA = hBD-1 mRNA expression in VA10 cells, real time RT-PCR; assay type: cell-based, human; details: 4 mM, 24 hours, compared with CAMP induction
Experimental: FIG. 11: Induction of hBD-1 mRNA expression by PBA. VA10 cells were stimulated with 4 mM of PBA or solvent alone (Control) for 24 hours. hBD-1 mRNA levels were determined by real time RT-PCR, CAMP induction shown for comparison. Individual samples were normalized to total RNA input. Results were normalized to expression in control samples where controls were given the arbitrary value of one. Data is normalized to control and plotted as mean+SE from at least three independent experiments.
CAMP is not the only antimicrobial defense gene that is induced by PBA.

VDR co-activator genes = test: VDR co-activator mRNA levels in VA10 cells, real time RT-PCR; assay type: cell-based, human; details: 4 mM, 24 hours
Experimental: VA10 cells were stimulated with 4 mM of PBA or solvent alone (Control) for 24 hours. mRNA levels of the respective VDR co-activators were determined by real time RT-PCR. Individual samples were normalized to total RNA input. Results were normalized to expression in control samples where controls were given the arbitrary value of one. Data is normalized to control and plotted as mean+SE from three independent experiments.
Hypothesizing that the synergistic effect between PBA and 1,25(OH)2D3 was due to an induction of VDR co-activator genes by PBA, we analyzed the effect of PBA on mRNA levels of several known VDR co-activator genes in VA10. […] These co-activators are therefore not involved in the PBA-induced effects on gene expression.

[8] = tested on: CAMP mRNA in A497 (Human renal carcinoma cell line); test: CAMP gene expression by PBA in A497 cells; assay type: cell-based; details: 4 mM, 8, 24 and 48 hours
Experimental: as §1, §2

[9] = tested on: CAMP mRNA in HT-29 (Human colonic adenocarcinoma cell line); test: CAMP gene expression by PBA in HT-29 cells; assay type: cell-based; details: 4 mM, 8, 24 and 48 hours
Experimental: as §1, §2

[10] = tested on: CAP-18 (the rabbit homologue to LL-37); test: Shigella infected rabbits treated with glyceryl tributyrate, CAP-18 immunohistochemistry; assay type: in vivo; details: oral, 47 μmol/kg twice daily for 3 days, Shigella flexneri 2a
Experimental: Animal model: Inbred New Zealand White rabbits of either gender weighing 1.8 to 2 kg were used for the study. The animals were individually caged in a room maintained at 22-25° C. Before inclusion in the study, health status of the rabbits was determined by physical examination, culture of stool and rectal swab specimens and fecal parasitic examination. Healthy coccidia-free rabbits that were also free of enteric pathogens (e.g. Salmonella, Shigella, Vibrio cholera) were studied. Rabbits were infected with Shigella and divided into two groups, one group was treated orally with glyceryl tributyrate and the other with saline. Expression of the CAP-18 peptide and its proform in colonic and rectal tissue specimens were analyzed in healthy rabbits, in untreated infected rabbits, in infected and healthy rabbits treated with glycerol tributyrate. For analyses of toxicity effects of glycerol tributyrate healthy rabbits were also treated with this compound.
Bacterial strain and inoculum preparation: The Shigella flexneri 2a strain was isolated from stool of a patient. The strain was positive for the Serény test and Congo red binding, reflecting invasive properties (Berkhoff, H. A. and Vinal, A. C., 1986, Avian Dis. 30, 117-121)) From this stock, bacteria were subcultured on trypticase soya agar (TSA; Becton Dickinson, Sparks, Md.) plates and cultured overnight at 37° C. […]

C[C@@H]1C[C@@H]([C@H](O)CC2CC(=O)NC(=O)C2)C(=O)[C@@H](C)C1 [CHX, cycloheximide]
PBA induced CAMP gene expression in presence of cycloheximide ([1]; 4 mM PBA): effectively blocked | butyrate induced CAMP gene expression in presence of cycloheximide ([1]; 4 mM butyrate): effectively blocked

CC(Cc1ccccc1)C(=O)O (stereo not drawn) [ST7, α-methylhydrocinnamate]
CAMP mRNA expression ([2]; VA10 cells, 24 hours): significantly increased

CCC(C)(C)C(=O)O [ST20, 2,2-dimethylbutyrate]
CAMP mRNA expression ([2]; VA10 cells, 24 hours): no apparent effect

N#CC(=C(/N)Sc1ccccc1N)/C(C#N)=C(\N)Sc1ccccc1N [U0126]
PBA induced CAMP gene expression in presence of inhibitor [3]: significantly reduced

CCCC(=O)[O-].[Na+] [butyrate, sodium butyrate]
safety of topical (enema) dosing [4]: safe with no obvious side effects | safety of oral dosing ([4]; daily oral dose of 4 g, colonic-targeted tablets, 6 weeks, IBD patients): safe and well tolerated without any adverse effects | activity in stimulating production of defensin relative to isoleucine (defensin): less active than isoleucine at similar concentrations | CAP-18 in the surface epithelium [5]: significant upregulation | clinical illness and bacterial load in the stool [5]: reduced clinical illness and bacterial load in the stool | LL-37 mRNA expression (LL-37 mRNA): increases

CC(C)C(=O)O [isobutyrate]
LL-37 mRNA expression (LL-37 mRNA): increases

C=C1CC[C@H](O)C/C1=C/C=C1\CCC[C@]2(C)[C@@H]([C@H](C)CCCC(C)C)CC[C@@H]12 [oral vitamin D]
cathelicidin expression in AD lesional skin (cathelicidin): statistically significant increase

CCC(=O)O [propionate]
LL-37 mRNA expression (LL-37 mRNA): increases

O=C([O-])CCCc1ccccc1.[Na+] [sodium 4-phenylbutyrate]
dose dependence of response at higher concentrations ([2]; 8 mM, earlier experiments, results not shown): ceased to be dose-dependent | LL-37 mRNA expression (fold-induction of CAMP mRNA) ([2]; VA10 cells, 2 mM, 24 hours, compared with sodium butyrate 2 mM and vitamin D3 100 nM): more effective inducer of LL-37 mRNA expression than butyrate or vitamin D | time and dose dependence of CAMP mRNA expression ([2]; VA10 cells, 4 mM over different time points, different concentrations for 24 hours): dependent on PBA dose and increased over time | CAMP mRNA expression [6]: significantly increased | safety of topical (enema) dosing [4]: None of these studies reported any adverse effect or reactions | histone H3 and H4 acetylation at the CAMP gene proximal promoter [7]: No significant differences; also recorded: No significant change | hBD-1 mRNA expression (hBD-1 mRNA): induced, although at lower level than CAMP | mRNA levels of VDR co-activator genes (VDR co-activator genes): None of the genes were significantly upregulated | CAMP mRNA expression [8]: significantly increased | CAMP mRNA expression [9]: significantly increased

CCCC(=O)OCC(COC(=O)CCC)OC(=O)CCC [tributyrylglycerol, glyceryl tributyrate]
CAP-18 expression in surface epithelial cells of Shigella infected rabbits [10]: counteracted; also recorded: reverted and/or prevented
